These are literature values, as cited in US20060246133A1, “Controlled release pharmaceutical compositions of liothyronine and methods of making and using the same” (priority 2005, published 2006).

The conditions of this series: when administered in an immediate release form.

As for `N[C@@H](Cc1cc(I)c(Oc2ccc(O)c(I)c2)c(I)c1)C(=O)O` [liothyronine], the half-life result was “about 10 hours”.
